How the values were obtained:
[1] = Solid stability assay of crystal form A (XRPD); format: physicochemical
Source text: The sample was spread into a thin layer. For the samples placed under conditions of high temperature and high humidity, the vial mouth was sealed with aluminum foil, and some small holes were punched in the aluminum foil to ensure that the samples were fully in contact with the ambient air. For the samples placed under condition of strong light, the vial mouth was sealed with aluminum foil, and some small holes were punched in the aluminum foil. Samples placed under different conditions were sampled and tested (XRPD) on day 5 and day 10, respectively. The assay results were compared with the initial assay results on day 0.
Each medicinal low-density polyethylene bag was tied tightly with a tie, and then was placed into a single-layer aluminum foil bag. The single-layer aluminum foil bag was then heat-sealed. Finally, the samples were stored in plastic buckets and stored in a chamber with constant temperature and humidity. The packaging used in the stability assay simulated the material storage packaging. The material was divided into 1.5 g/package as stability samples under red light. Each sample was packaged in the same way and labeled with a stability sample label. The samples placed under different conditions were sampled and tested (XRPD) in the 3rd and 6th months. The assay results were compared with the initial assay results on day 0.

[2] = Pharmacokinetics of crystal form A by oral administration in SD rats; format: in vivo; conditions: male, rat, plasma, 92.3 mg/kg, suspension in 0.5% methylcellulose
Description: Male SD rats aged 7 to 10 weeks were selected, and administered candidate compound solution orally. Whole blood was collected for a certain period of time, and prepared to obtain plasma. Drug concentration was analyzed by LC-MS/MS method, and pharmacokinetic parameters were calculated by Phoenix WinNonlin software (Pharsight, USA).

[3] = Pharmacokinetics by oral administration in beagle dogs; format: in vivo; conditions: male, dog, plasma, 24.5 mg/kg, 0.5% methylcellulose
Description: 680.397 mg of assay compound powder was accurately weighed, and 50 mL of 0.500 methylcellulose (400 viscosity) aqueous solution was added. The mixture was stirred for 10 minutes, and sonicated for 10 minutes. 50 mL of 0.5% o methylcellulose (400 viscosity) aqueous solution was added, and homogenized for 10 minutes using a homogenizer. 11 mL of 0.5% o methylcellulose (400 viscosity) aqueous solution was added. The mixture was sonicated for 5 minutes and stirred for 10 minutes. 358 μL of 0.5% o methylcellulose (400 viscosity) aqueous solution was added and stirred for 2 minutes. Male beagle dogs aged over six months were selected, and administered candidate compound solution orally. Whole blood was collected for a certain period of time, and prepared to obtain plasma. Drug concentration was analyzed by LC-MS/MS method, and pharmacokinetic parameters were calculated by Phoenix WinNonlin software (Pharsight, USA). The results of the assay are shown in Table 14: […]

[4] = read-out: Area under the plasma concentration-time curve, AUC0-last
[5] = read-out: Peak concentration, Cmax

SMILES: C=C(F)C(=O)N1CCN(c2nc(OC[C@@]34CCCN3C[C@H](F)C4)nc3c2CO[C@H](c2c(F)c(N)cc(C)c2C(F)(F)F)C3)C[C@@H]1CC#N
- Crystal form ([1]; 25 ± 2° C./60 ± 5% relative humidity, 3 months): Crystal form A
- Crystal form ([1]; 25 ± 2° C./60 ± 5% relative humidity, 6 months): Crystal form A
- Crystal form ([1]; 40 ± 2° C./75 ± 5% relative humidity, 3 months): Crystal form A
- Crystal form ([1]; 40 ± 2° C./75 ± 5% relative humidity, 6 months): Crystal form A
- Crystal form ([1]; High humidity (25° C./relative humidity 92.5%, unsealed), 5 days): Crystal form A
- Crystal form ([1]; High humidity (25° C./relative humidity 92.5%, unsealed), 10 days): Crystal form A
- Crystal form ([1]; High temperature (60° C., unsealed), 5 days): Crystal form A
- Crystal form ([1]; High temperature (60° C., unsealed), 10 days): Crystal form A
- Crystal form ([1]; Light control, 5 days): Crystal form A
- Crystal form ([1]; Light control, 10 days): Crystal form A
- solid stability ([1]; high temperature, high humidity, strong light, long-term and accelerated experiments): good stability
- Crystal form ([1]; initial, 0 day (XRPD)): Crystal form A
- AUC(0-t) [2, 4]: 11.5 µM·h
- Cmax [2, 5]: 1400 nM
- Tmax ([2]; read-out: Time-to-peak, Tmax): 5.33 h
- AUC(0-t) [3, 4]: 16.7 µM·h
- Cmax [3, 5]: 2440 nM
- Tmax ([3]; read-out: Time-to-peak, Tmax): 2.5 h

Reference: patent US20250129102A1, “CRYSTAL FORM OF PYRIMIDINE HETEROCYCLIC COMPOUND AND PREPARATION METHOD THEREFOR” (D3 Bio (Wuxi) Co., Ltd., priority 2021, published 2025)
